Reference: US20160082015A1, “METHODS, COMPOSITIONS AND KITS FOR PROMOTING MOTOR NEURON SURVIVAL AND TREATING AND DIAGNOSING NEURODEGENERATIVE DISORDERS” (PRESIDENT AND FELLOWS OF HARVARD COLLEGE, priority 2013, published 2016)
Entries after “also recorded” stand apart in the source; their conditions may differ.

Legend:
[1] = test system: HB9::GFP MNs; experiment: MN death induced by PI3K inhibitor LY294002; format: cell-based; details: 10 μM co-incubated with LY294002
Description: (§1) FIGS. 3A and 3B show line graphs showing effects of kenpaullone and GSK-3 inhibitor VIII on MN death induced by treatment with a PI3K inhibitor. LY294002 was added to cultures on day 4, with or without concurrent treatment with 10 μM kenpaullone or 10 μM GSK-3 inhibitor VIII. Cells were fixed on day 7 for survival analysis. Survival is measured with respect to cells treated with DMSO alone. FIG. 3C is a bar graph showing that Kenpaullone also blocks death of MNs accelerated by co-culture with SOD1^G93A astrocytes. Hb9:GFP MNs were FACS sorted and plated on a confluent monolayer of wild-type or SOD1^G93A astrocytes. Kenpaullone was added to cultures 24 hrs later and was refreshed every three days by replacing half of the old medium with fresh medium containing IX concentration of the compound. Cells were fixed after nine days of compound treatment and MN survival was determined. Trophic factors were present throughout the experiment. Data are presented as percent survival normalized to that of DMSO treated MNs plated on wild-type astrocytes. Again, kenpaullone was effective in decreasing the extent of death. * p<0.05, ** p<0.01, *** p<0.001 (Student's t test, two-tailed). Data are presented as mean±SEM.
(§2) The PI3K/Akt pathway is well known to regulate neuronal survival including that of MNs (Brunet et al., 2001; Barthélémy et al., 2004). […] The inventors sought to examine if either kenpaullone or a more specific GSK-3 inhibitor (Inhibitor VIII) could protect MNs from death caused by inactivation of PI3K/AKT. […] Thus kenpaullone's effects are not restricted to protection after trophic factor withdrawal.

[2] = test system: SOD1^G93A/HB9::GFP MNs; experiment: MN death induced by PI3K inhibitor LY294002; format: cell-based; details: 10 μM co-incubated with LY294002
Description: as §1, §2

[3] = test system: SOD1^G93A/HB9::GFP MNs; experiment: Mouse MN survival assay, trophic factor withdrawal; format: cell-based; details: for survival of SOD1^G93A/HB9::GFP MNs: trophic factors removed and compound added day 4, fixed day 7
Description: For the small molecule screen or for standard survival assays, freshly dissociated EBs were plated at a density of 8,000 GFP^+ cells (384-well) or 30.000 GFP+ cells (96-well) per well. Four days later (day 4), trophic factors (BDNF, GDNF and CNTF) were removed, and individual compounds were added to the wells. For the primary screen each was tested at three concentrations (0.1 μM, 1 μM and 10 μM) in duplicate. […] The number of MNs surviving was analyzed by counting the remaining GFP^+ cells in the whole well. Total cell numbers were obtained by counting Hoechst-positive nuclei. A size threshold was set based on control cultures to eliminate apoptotic MNs Unless stated otherwise, survival is measured as fold-increase compared to cultures maintained without trophic factors.
For long-term MN survival assays, MN cultures were fed with fresh medium and compounds every two days until fixation and quantification as above.
All primary hits were subsequently tested in a nine-point dose-response assay, using the same screening protocol.

[4] = biological target: HGK (Homo sapiens, UniProt O95819); experiment: Kinase activity assay with MBP substrate; format: biochemical; details: recombinant kinase, myelin basic protein substrate
Sequence of HGK (O95819 whole entry): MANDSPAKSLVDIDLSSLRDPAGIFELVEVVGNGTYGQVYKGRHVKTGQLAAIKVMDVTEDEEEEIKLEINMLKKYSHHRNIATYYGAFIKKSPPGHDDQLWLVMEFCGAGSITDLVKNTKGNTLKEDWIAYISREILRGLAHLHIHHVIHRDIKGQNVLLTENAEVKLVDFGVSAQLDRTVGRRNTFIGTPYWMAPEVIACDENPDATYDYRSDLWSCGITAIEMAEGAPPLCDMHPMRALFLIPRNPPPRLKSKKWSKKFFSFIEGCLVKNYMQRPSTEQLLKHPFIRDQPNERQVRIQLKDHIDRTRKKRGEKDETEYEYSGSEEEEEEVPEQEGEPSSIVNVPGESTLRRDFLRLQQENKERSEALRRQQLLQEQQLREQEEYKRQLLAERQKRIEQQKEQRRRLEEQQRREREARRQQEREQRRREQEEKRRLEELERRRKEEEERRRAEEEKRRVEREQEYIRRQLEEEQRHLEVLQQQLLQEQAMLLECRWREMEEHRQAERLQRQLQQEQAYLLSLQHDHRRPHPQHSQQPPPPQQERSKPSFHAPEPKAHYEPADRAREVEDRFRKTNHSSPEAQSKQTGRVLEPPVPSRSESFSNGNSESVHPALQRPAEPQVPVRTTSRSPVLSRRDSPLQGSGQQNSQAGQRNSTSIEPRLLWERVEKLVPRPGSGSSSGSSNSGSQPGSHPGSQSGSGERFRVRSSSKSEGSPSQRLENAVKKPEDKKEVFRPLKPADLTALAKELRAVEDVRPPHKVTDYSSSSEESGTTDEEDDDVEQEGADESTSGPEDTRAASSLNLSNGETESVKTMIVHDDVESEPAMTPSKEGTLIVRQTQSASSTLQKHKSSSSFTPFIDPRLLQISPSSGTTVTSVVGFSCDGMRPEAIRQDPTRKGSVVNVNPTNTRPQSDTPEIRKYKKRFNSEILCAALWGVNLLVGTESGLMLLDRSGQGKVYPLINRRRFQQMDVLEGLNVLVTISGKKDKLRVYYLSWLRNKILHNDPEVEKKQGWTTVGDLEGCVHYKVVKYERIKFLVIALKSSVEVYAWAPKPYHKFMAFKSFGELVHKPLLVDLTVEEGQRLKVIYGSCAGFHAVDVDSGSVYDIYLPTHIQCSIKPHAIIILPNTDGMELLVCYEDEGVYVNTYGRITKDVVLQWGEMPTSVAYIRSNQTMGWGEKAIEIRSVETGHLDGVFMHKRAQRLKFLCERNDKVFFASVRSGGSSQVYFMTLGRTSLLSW
Text: (§3) The enzymatic reaction was stopped with Laemmli buffer and samples were separated in a polyacrylamide gel. Finally, the gel was exposed to a Storage Phosphor Screen (GE Healthcare) and scanned in a Typhoon 9400 scanner (GE Healthcare). Signal density was estimated with Quantity One software (Bio-Rad).

[5] = biological target: T1, MLK3 (Homo sapiens, UniProt Q16584); experiment: Kinase activity assay with MBP substrate; format: biochemical; details: recombinant kinase, myelin basic protein substrate
T1 construct: purchased SignalChem
T1 sequence (Q16584 whole entry): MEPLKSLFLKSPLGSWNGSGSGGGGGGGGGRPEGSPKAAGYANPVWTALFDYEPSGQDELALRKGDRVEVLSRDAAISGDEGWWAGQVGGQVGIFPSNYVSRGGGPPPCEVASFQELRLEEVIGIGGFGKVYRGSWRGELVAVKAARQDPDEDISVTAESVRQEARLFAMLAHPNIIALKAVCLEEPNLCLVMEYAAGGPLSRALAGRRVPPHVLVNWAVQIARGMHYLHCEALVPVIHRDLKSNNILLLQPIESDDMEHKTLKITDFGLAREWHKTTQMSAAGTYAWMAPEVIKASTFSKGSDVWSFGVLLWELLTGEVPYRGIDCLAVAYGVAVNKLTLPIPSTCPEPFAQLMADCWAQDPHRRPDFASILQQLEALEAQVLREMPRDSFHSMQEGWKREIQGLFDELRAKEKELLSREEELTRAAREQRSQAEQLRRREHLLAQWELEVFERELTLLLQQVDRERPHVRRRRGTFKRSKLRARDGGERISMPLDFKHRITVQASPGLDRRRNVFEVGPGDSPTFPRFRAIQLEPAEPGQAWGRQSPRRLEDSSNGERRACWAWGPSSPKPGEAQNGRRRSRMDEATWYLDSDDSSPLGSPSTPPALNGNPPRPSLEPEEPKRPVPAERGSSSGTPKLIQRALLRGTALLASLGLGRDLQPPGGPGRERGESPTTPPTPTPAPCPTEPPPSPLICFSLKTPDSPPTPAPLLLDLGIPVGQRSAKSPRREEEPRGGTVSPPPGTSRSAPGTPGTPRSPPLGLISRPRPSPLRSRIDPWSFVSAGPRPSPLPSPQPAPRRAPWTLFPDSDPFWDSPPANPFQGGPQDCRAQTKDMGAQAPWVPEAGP
Text: as §3

[6] = test system: site-specific phosphorylation of kinases in MN cultures; experiment: Phospho-Kinase Antibody Array; format: cell-based, mouse
Description: Freshly dissociated HB9::GFP EBs were plated at a density of 3 million GFP+ cells/10 cm dish and trophic factor withdrawal/compound addition was performed on day 4. Protein lysates were generated 6 and 24 h after treatment using RIPA buffer supplemented with protease and phosphatase inhibitors (Pierce Biotechnology). Equal amounts of total protein from treatment groups were added to Phospho-Kinase Antibody Arrays (R&D Systems, #ARY003). Arrays were prepared following the manufacturer's instructions and developed with SuperSignal West Pico Chemiluminescent Substrate (Pierce Biotechnology). Background signal was subtracted and duplicate spot pixel densities were averaged using QuantityOne software (BioRad).

[7] = test system: HB9::GFP MNs; experiment: Image analyses of synapses and neurite arborization; format: cell-based, mouse; details: 5 μM
Text: (§4) For synapse analysis, the inventors quantified imaging data using the PerkinElmer Acapella software spot detection algorithm. Synapses were defined as the overlap of presynaptic and postsynaptic spots on MNs. On each GFP^+ cell, we first drew a circle around the cell body with a diameter of approximately two cell body diameters, similar to that described by Ullian et al. (Schwann cells and astrocytes induce synapse formation by spinal motor neurons in culture. Mol Cell Neurosci., 2004, 25: 241-251) as the area for spot detection. Within each circle, presynaptic sites were detected using a primary antibody against synapsin and a secondary antibody conjugated with Alexa-632. Candidate spots that met an average intensity threshold were accepted as legitimate presynaptic punctac. Then we expanded the radius of each presynaptic puncta by 1 pixel, since the pre- and post-synaptic spots often were slightly offset, especially at higher magnifications, and measured the intensity in the postsynaptic channel, using a PSD95 primary antibody and a secondary antibody conjugated with Alexa-546. Postsynaptic punctae that exceeded the threshold mean intensity threshold were accepted, permitting us to define “colocalized” spots, or synapses.
(§5) The neurite tracing method in Acapella software is based on methods developed at CSIRO at perkinelmer.com/pages/020/cellularimaging/assaysneuriteoutgrowth.xhtm. The cell bodies of MNs were located by expression of HB9:GFP, and the neurites were also detected by GFP fluorescence. The algorithm measured the lengths and fluorescence intensities of each neurite and the branching level (primary, secondary, etc). The total lengths of neurites and the numbers, lengths and fluorescent intensities of primary and secondary branches were measured based on selected threshold parameters.

[8] = test system: SOD1^G93A/HB9::GFP MNs; experiment: as above; format: cell-based, mouse; details: 5 μM
Text: as §4, §5

[9] = test system: Hb9:GFP MNs; experiment: MN survival in co-culture with wild-type or SOD1^G93A astrocytes; format: cell-based, mouse; details: nine days of compound treatment, trophic factors present
Description: as §1, with “mean±SEM. […]” for “mean±SEM.”

[10] = trophic factors removed day 4, analyzed day 21

**Q.** Which results are given for `O=C1Cc2c([nH]c3ccc(Br)cc23)-c2ccccc2N1` [Kenpaullone]?
**A.** protection from LY294002-induced MN death [1]: significantly attenuated; protection from LY294002-induced MN death [2]: significantly attenuated; number of SOD1^G93A/HB9::GFP MNs in medium with kenpaullone ([3]; complete medium (+TF), day 28): 8 times; long-term survival of MNs without trophic factors ([3]; days 7, 14, 21 and 28): improved survival; MN death in complete medium (+TF) ([3]; first two weeks): reduced the death; survival of SOD1^G93A/HB9::GFP MNs [3]: strong effects; survival of SOD1^G93A/HB9::GFP MNs ([3]; listed as kenpaullone): potent survival promoting effects; HGK activity [4]: inhibited; also recorded: strongly inhibits; MLK3 activity [5]: not; relative phosphorylation of GSK-3 [6]: significant reduction; relative phosphorylation of c-Jun [6]: reduction; relative phosphorylation of cJun N-terminal kinase (JNK) [6]: reduction; number of synapses per MN ([7]; no trophic factors, day 21): dramatic increase; neuritic network of MNs [7, 10]: maintain the neuritic network of these cells at levels seen in trophic factor supplemented cultures; synapses per MN ([8]; no trophic factors, day 21): supported their ability to maintain morphological synapses; neurite growth of MNs [8, 10]: allowing neurite growth beyond that seen in cells kept in trophic factors; MN survival on SOD1^G93A astrocytes [9]: improved survival; MN survival on wild-type astrocytes [9]: improved survival
